# Measured values taken from US20230058171A1, “NEW ORAL PHARMACEUTICAL COMPOSITION FOR CANCER THERAPY” (BOEHRINGER INGELHEIM INTERNATIONAL GMBH, priority 2021, published 2023).
# Read-outs that look alike come from different tables or passages of the source.
# Assay: Preliminary pharmacokinetics in trial 1403-0001 (Arm A D1 q3w, Arm B D1 D8 q4w)
# Format: in vivo, human
# Conditions: for Vd/F / half-life / Tmax / AUC(0-inf) / Cmax: human, plasma, oral
# Excerpt: Preliminary PK data were available from the first 45 treated patients in study 1403-0001. The exploratory PK analysis is based on planned blood sampling time-points and the results are subject to change because not all samples from these patients have been analyzed yet. Therefore, AUCs may be incomplete. In addition, information on the absorption, distribution, and elimination of the MDM2 antagonist of formula I are descriptive given the limited exploratory PK results available up to this point in time.
# Consequently the preliminary PK results support the dose selection of 45 mg (and alternatively even of 30 mg) combined with the once in three weeks (D1 q3w) dose regimen. The tmax of the MDM2 antagonist of formula I is generally between 4 and 6 hours after tablet intake.
smiles,measurement,setting,value
"Cc1c(C(=O)O)ccc2c3n(nc12)[C@@H]1[C@H](C3)N(CC2CC2)[C@@]2(C(=O)Nc3cc(Cl)ccc32)[C@H]1c1cccc(Cl)c1F [MDM2-antagonist of formula I, (2′S,3′S,3a'S,10a'S)-6-chloro-3′-(3-chloro-2-fluorophenyl)-1′-(cyclopropylmethyl)-6′-methyl-2-oxo-1,2,3′,3a′,10′,10a′-hexahydro-1′H-spiro[indole-3,2′-pyrrolo[2′,3′:4,5]pyrrolo[1,2-b]indazole]-7′-carboxylic acid]",Vd/F,"10 mg, Day 1, D1 D8 q4w (Arm B), gMean, N=3, read-out: Vz/F",24.5 L
same,half-life,"10 mg, Day 1, D1 D8 q4w (Arm B), gMean, N=3, read-out: t1/2 (converted)",52.4 h
same,Tmax,"10 mg, Day 1, D1 D8 q4w (Arm B), median, N=3, read-out: tmax",6 h
same,AUC(0-inf),"10 mg, Day 8, D1 D8 q4w (Arm B), gMean, N=3, read-out: AUC0-∞",48.4 µM·h
same,Cmax,"10 mg, Day 8, D1 D8 q4w (Arm B), gMean, N=3, read-out: Cmax",714 nM
same,Vd/F,"10 mg, Day 8, D1 D8 q4w (Arm B), gMean, N=3, read-out: Vz/F",23.1 L
same,half-life,"10 mg, Day 8, D1 D8 q4w (Arm B), gMean, N=3, read-out: t1/2 (converted)",45.9 h
same,Tmax,"10 mg, Day 8, D1 D8 q4w (Arm B), median, N=3, read-out: tmax",5 h
same,AUC(0-inf),"15 mg, Day 1, D1 D8 q4w (Arm B), gMean, N=3, read-out: AUC0-∞",37.8 µM·h
same,Cmax,"15 mg, Day 1, D1 D8 q4w (Arm B), gMean, N=3, read-out: Cmax",831 nM
same,Vd/F,"15 mg, Day 1, D1 D8 q4w (Arm B), gMean, N=3, read-out: Vz/F",32.3 L
same,half-life,"15 mg, Day 1, D1 D8 q4w (Arm B), gMean, N=3, read-out: t1/2 (converted)",33.4 h
same,Tmax,"15 mg, Day 1, D1 D8 q4w (Arm B), median, N=3, read-out: tmax",5 h
same,AUC(0-inf),"15 mg, Day 8, D1 D8 q4w (Arm B), gMean, N=2, read-out: AUC0-∞",25.8 µM·h
same,Vd/F,"15 mg, Day 8, D1 D8 q4w (Arm B), gMean, N=2, read-out: Vz/F",37.3 L
same,half-life,"15 mg, Day 8, D1 D8 q4w (Arm B), gMean, N=2, read-out: t1/2 (converted)",26.3 h
same,Cmax,"15 mg, Day 8, D1 D8 q4w (Arm B), gMean, N=3, read-out: Cmax",776 nM
same,Tmax,"15 mg, Day 8, D1 D8 q4w (Arm B), median, N=3, read-out: tmax",4 h
same,Cmax,"20 mg, Arm A D1 q3w, 20 mg, N=2, read-out: Cmax (gMean)",1160 nM
same,Tmax,"20 mg, Arm A D1 q3w, 20 mg, N=2, read-out: tmax (median)",5.5 h
same,AUC(0-inf),"20 mg, Day 1, D1 D8 q4w (Arm B), gMean, N=3, read-out: AUC0-∞",88.9 µM·h
same,Cmax,"20 mg, Day 1, D1 D8 q4w (Arm B), gMean, N=3, read-out: Cmax",1370 nM
same,Vd/F,"20 mg, Day 1, D1 D8 q4w (Arm B), gMean, N=3, read-out: Vz/F",27.7 L
same,half-life,"20 mg, Day 1, D1 D8 q4w (Arm B), gMean, N=3, read-out: t1/2 (converted)",50.5 h
same,Tmax,"20 mg, Day 1, D1 D8 q4w (Arm B), median, N=3, read-out: tmax",4 h
same,AUC(0-inf),"20 mg, Day 8, D1 D8 q4w (Arm B), gMean, N=3, read-out: AUC0-∞",61.1 µM·h
same,Cmax,"20 mg, Day 8, D1 D8 q4w (Arm B), gMean, N=3, read-out: Cmax",1220 nM
same,Vd/F,"20 mg, Day 8, D1 D8 q4w (Arm B), gMean, N=3, read-out: Vz/F",30.5 L
same,half-life,"20 mg, Day 8, D1 D8 q4w (Arm B), gMean, N=3, read-out: t1/2 (converted)",38.2 h
same,Tmax,"20 mg, Day 8, D1 D8 q4w (Arm B), median, N=3, read-out: tmax",3 h
same,AUC(0-inf),"30 mg, Arm A D1 q3w, 30 mg, N=3, read-out: AUC0-∞, gMean (gCV [%])",113 µM·h
same,Cmax,"30 mg, Arm A D1 q3w, 30 mg, N=3, read-out: Cmax (gMean)",2890 nM
same,Vd/F,"30 mg, Arm A D1 q3w, 30 mg, N=3, read-out: Vz/F, gMean (gCV [%])",23.6 L
same,Tmax,"30 mg, Arm A D1 q3w, 30 mg, N=3, read-out: tmax (median)",4 h
same,AUC(0-inf),"30 mg, Day 1, D1 D8 q4w (Arm B), gMean, N=4, read-out: AUC0-∞",79.9 µM·h
same,Cmax,"30 mg, Day 1, D1 D8 q4w (Arm B), gMean, N=4, read-out: Cmax",1440 nM
same,Vd/F,"30 mg, Day 1, D1 D8 q4w (Arm B), gMean, N=4, read-out: Vz/F",33.1 L
same,half-life,"30 mg, Day 1, D1 D8 q4w (Arm B), gMean, N=4, read-out: t1/2 (converted)",36.2 h
same,Tmax,"30 mg, Day 1, D1 D8 q4w (Arm B), median, N=4, read-out: tmax",4.5 h
same,AUC(0-inf),"30 mg, Day 8, D1 D8 q4w (Arm B), gMean, N=3, read-out: AUC0-∞",64.8 µM·h
same,Cmax,"30 mg, Day 8, D1 D8 q4w (Arm B), gMean, N=3, read-out: Cmax",1330 nM
same,Vd/F,"30 mg, Day 8, D1 D8 q4w (Arm B), gMean, N=3, read-out: Vz/F",44.6 L
same,half-life,"30 mg, Day 8, D1 D8 q4w (Arm B), gMean, N=3, read-out: t1/2 (converted)",39.5 h
same,Tmax,"30 mg, Day 8, D1 D8 q4w (Arm B), median, N=3, read-out: tmax",4 h
same,AUC(0-inf),"45 mg, Arm A D1 q3w, 45 mg, N=6, read-out: AUC0-∞, gMean (gCV [%])",137 µM·h
same,Cmax,"45 mg, Arm A D1 q3w, 45 mg, N=6, read-out: Cmax (gMean)",2710 nM
same,Vd/F,"45 mg, Arm A D1 q3w, 45 mg, N=6, read-out: Vz/F, gMean (gCV [%])",35.1 L
same,half-life,"45 mg, Arm A D1 q3w, 45 mg, N=6, read-out: t1/2 (gMean) (converted)",43.7 h
same,Tmax,"45 mg, Arm A D1 q3w, 45 mg, N=6, read-out: tmax (median)",4 h
same,AUC(0-inf),"45 mg, Day 1, D1 D8 q4w (Arm B), gMean, N=2, read-out: AUC0-∞",96.9 µM·h
same,Cmax,"45 mg, Day 1, D1 D8 q4w (Arm B), gMean, N=2, read-out: Cmax",2330 nM
same,Vd/F,"45 mg, Day 1, D1 D8 q4w (Arm B), gMean, N=2, read-out: Vz/F",34 L
same,half-life,"45 mg, Day 1, D1 D8 q4w (Arm B), gMean, N=2, read-out: t1/2 (converted)",30 h
same,Tmax,"45 mg, Day 1, D1 D8 q4w (Arm B), median, N=2, read-out: tmax",4 h
same,AUC(0-inf),"50 mg, Arm A D1 q3w, 50 mg, N=4, read-out: AUC0-∞, gMean (gCV [%])",314 µM·h
same,Cmax,"50 mg, Arm A D1 q3w, 50 mg, N=4, read-out: Cmax (gMean)",3740 nM
same,Vd/F,"50 mg, Arm A D1 q3w, 50 mg, N=4, read-out: Vz/F, gMean (gCV [%])",23.7 L
same,half-life,"50 mg, Arm A D1 q3w, 50 mg, N=4, read-out: t1/2 (gMean) (converted)",60.9 h
same,Tmax,"50 mg, Arm A D1 q3w, 50 mg, N=4, read-out: tmax (median)",5.5 h
same,AUC(0-inf),"60 mg, Arm A D1 q3w, 60 mg, N=6, read-out: AUC0-∞, gMean (gCV [%])",163 µM·h
same,Vd/F,"60 mg, Arm A D1 q3w, 60 mg, N=6, read-out: Vz/F, gMean (gCV [%])",31.4 L
same,half-life,"60 mg, Arm A D1 q3w, 60 mg, N=6, read-out: t1/2 (gMean) (converted)",34.9 h
same,Cmax,"60 mg, Arm A D1 q3w, 60 mg, N=7, read-out: Cmax (gMean)",3270 nM
same,Tmax,"60 mg, Arm A D1 q3w, 60 mg, N=7, read-out: tmax (median)",5 h
same,AUC(0-inf),"60 mg, Day 1, D1 D8 q4w (Arm B), gMean, N=2, read-out: AUC0-∞",87.7 µM·h
same,Cmax,"60 mg, Day 1, D1 D8 q4w (Arm B), gMean, N=2, read-out: Cmax",1960 nM
same,Vd/F,"60 mg, Day 1, D1 D8 q4w (Arm B), gMean, N=2, read-out: Vz/F",57 L
same,half-life,"60 mg, Day 1, D1 D8 q4w (Arm B), gMean, N=2, read-out: t1/2 (converted)",34.2 h
same,Tmax,"60 mg, Day 1, D1 D8 q4w (Arm B), median, N=2, read-out: tmax",6 h
same,Cmax,"60 mg, Day 8, D1 D8 q4w (Arm B), gMean, N=2, read-out: Cmax",1890 nM
same,Tmax,"60 mg, Day 8, D1 D8 q4w (Arm B), median, N=2, read-out: tmax",16 h
same,AUC(0-inf),"80 mg, Arm A D1 q3w, 80 mg, N=2, read-out: AUC0-∞, gMean (gCV [%])",205 µM·h
same,Cmax,"80 mg, Arm A D1 q3w, 80 mg, N=2, read-out: Cmax (gMean)",3930 nM
same,Vd/F,"80 mg, Arm A D1 q3w, 80 mg, N=2, read-out: Vz/F, gMean (gCV [%])",26.5 L
same,half-life,"80 mg, Arm A D1 q3w, 80 mg, N=2, read-out: t1/2 (gMean) (converted)",27.9 h
same,Tmax,"80 mg, Arm A D1 q3w, 80 mg, N=2, read-out: tmax (median)",3.5 h
same,Tmax,"after tablet intake, across dose groups, read-out: tmax",4 to 6 h
same,half-life,"range across dose groups, read-out: half-life",27.9 to 60.9 h
same,half-life,"Arm A D1 q3w, 30 mg, N=3, read-out: t1/2 (gMean) (converted)",36.4 h
same,clearance,"humans, preliminary PK data",low clearance
same,dose levels at which exposure (Cmax and AUC0-inf) is above predicted therapeutic exposures,"humans, preliminary PK data",≥ 15 mg
same,volume of distribution,"humans, preliminary PK data",very low volume of distribution
